In patent publication US9776127B2, “Reversible light driven gas absorbent solution and process” (Commonwealth Scientific and Industrial Research Organisation, priority 2013, dated 2017):

Experiment: pKa of photoactive compound in ground and excited state
Type: physicochemical
Source text: The operating range of the photoactive compound may be related to the difference in pKa between the excited and ground states of the photoactive molecule. The operating range may be ascertained by determining the pKa of the photoactive compound in its ground state (e.g. the base or relatively weak acid form) and the pKa of the compound in its excited state (e.g. the relatively strong acidic form). The difference in pKa between these two forms therefore defines the operating range of the photoactive compound. […] The requirement to select an amine for use with a photochromic molecule that results in an absorbent pH within the working range of the photochromic molecule can be illustrated by calculation. […] The pH of a mixture containing 0.5 M amine and 0.25 M MEH (ground state) as a function of absorbed CO2 and 0.5 M amine and 0.25 spiropyran (excited state) as function of absorbed CO2 was calculated using the published method Puxty, […]. Int. […]. Gas Control, 17 (2013), 215-224. The difference in pH of the absorbent at each concentration of absorbed CO2 is indicative of the ability of excitation to remove CO2 from the absorbent. […] Chem. Thermodynamics, 51 (2012), 97-102 and Fernandes, D., et al., J. Chem. Thermodynamics, 54 (2012), 183-191.

Row | SMILES | pKa (excited state) | pKa (ground state) | pKa (aqueous solution, ground state, aqueous solution at room temperature)
1 | O=[N+]([O-])CCc1c(O)ccc2ccccc12 [1-(2-nitroethyl)-2-naphthol] | 1.9 | 9.7 | 
2 | CC1(C)C(/C=C/c2ccccc2O)=[N+](CCCS(=O)(=O)[O-])c2ccccc21 [MEH] |  |  | 7.8
